From ChEMBL document CHEMBL3507680, “University of Dundee, Gates Library screen for HepG2 cell viability”

Experiment: Human HepG2 cell viability assay in 384 well format
Assay type: toxicity, cell-based
Design: dose 125 nL, time 70.5 hour; cytotoxicity at 70.5 h: concentration not given beside the values
Conditions: HepG2 cells, read-out: Inhibition

Row | Compound | cytotoxicity at 70.5 h
1 | CC(=O)N[C@@H]1CN(Cc2ccco2)C[C@H]1c1ccc(C)o1 | -6.07%
2 | CC(C)C(C)NC(=O)Nc1ccccc1CN1CCOCC1 (stereo unspecified) | -8.46%
3 | O=C(NCCCN1CCOCC1)C1CCCN(Cc2ccco2)C1 (stereo unspecified) | -1.31%
4 | Fc1ccc(CN2CCC3(CCN(Cc4nccs4)CC3)C2)cc1 | -0.695%
5 | Cc1cnc(CNC(=O)[C@@]23CCO[C@@H]2CCN(c2ncccn2)C3)cn1 | -12.7%
6 | Cc1cc2c(cc1C)OC(C(=O)NCCNC(=O)C1CCCC1)C2 (stereo unspecified) | -6.43%
7 | CC(C)(C)OC(=O)NCC1CCN(C(=O)c2ccc(F)cc2F)C1 (stereo unspecified) | -4.74%
8 | Cc1cnn(C2CN(CC(=O)NCCOc3ccccc3)C2)c1 | -4.92%
9 | Cn1nc(C(=O)NCc2cccc(Cn3ccnc3)c2)ccc1=O | 3.47%
10 | CC(C)n1nnc(CC(=O)NCC2(c3ccccc3F)CCOCC2)n1 | -8.63%
11 | O=C(Cn1cccn1)N1CCC(Oc2ccc(C(F)(F)F)cn2)CC1 | -0.904%
12 | O=C1CN(c2cc(-c3ccccc3F)nc3ccnn23)CCCN1 | -14.6%
13 | CCCN(CCC)S(=O)(=O)N(C)Cc1ccncc1 | -12.4%
14 | Cc1nccc(C(=O)N2CCCC2c2c(C)nn(C)c2C)n1 (stereo unspecified) | 16.2%
15 | O=C(NCc1nn(-c2ccccc2)c2c1CCC2)NC1CC1 | -19%
16 | Cc1cccc(C)c1OCC(=O)Nc1cccn(C)c1=O | -4.44%
17 | O=c1[nH]c2cc(S(=O)(=O)N3CCC(c4ccsc4)CC3)ccc2o1 | -5%
18 | CCOCCC(=O)NCC(C)c1ccsc1 (stereo unspecified) | -5.93%
19 | Cc1nn(C)c(C)c1C1COCCN1C(=O)c1cc(F)ccc1F (stereo unspecified) | -16.4%

Row | Compound | cytotoxicity at 70.5 h
20 | Cc1cc(C)c2ncn(CCC(C)O)c(=O)c2c1 (stereo unspecified) | -5.19%
21 | CNS(=O)(=O)c1ccc(CN2CCN(Cc3ncccc3C)CC2)cc1 | -15.3%
22 | CC(=O)N1C[C@H](NS(=O)(=O)N2CCCC2)[C@@H](c2ccc(C)o2)C1 | -7.2%
23 | Cc1cccc(N2CCCC3(C2)CN(c2nncs2)CCO3)c1 (stereo unspecified) | 16.1%
24 | CC(C)(C)NC(=O)NC(=O)CNC(C)(C)c1ccc2c(c1)OCCO2 | -16.2%
25 | Cc1cc(CNC2CCCN(Cc3noc(C4CC4)n3)C2)on1 (stereo unspecified) | 23.9%
26 | Cc1cc(CN2C[C@@H]3CN(C(=O)c4cccn4C)CCO[C@@H]3C2)no1 | 1.95%
27 | CCC(CNC(=O)NC1CCN(C)CC1)Oc1ccccc1Cl (stereo unspecified) | 30.5%
28 | CC(=O)N1CCn2c(C(=O)N(C)C)cnc2C1 | -29.5%
29 | O=C1CCCN1C1CCCN(CCOc2ccc(F)cc2)C1 (stereo unspecified) | -6.91%
30 | CNc1cncc(C2CCCN2C(=O)Cn2ccnc2C)n1 (stereo unspecified) | -5.3%
31 | Cc1nc(C(=O)N2C[C@@H]3CN(S(C)(=O)=O)CCO[C@@H]3C2)cs1 | -1.34%
32 | O=C1COc2cc(C(=O)N3CCCC(n4cccn4)C3)ccc2N1 (stereo unspecified) | -1.96%
33 | Cc1nc(CCC(=O)NCC(N)=O)cc(C2CCNCC2)n1 | -6.67%
34 | CCn1c(CN(C)C(=O)c2ccc(N(C)C)nc2)nc2ccccc21 | -14%
35 | Cc1ccc(N2CCCC3(CCN(C(=O)c4sccc4C)C3)C2)nn1 (stereo unspecified) | -4.03%
36 | O=C(COc1ccc(Cl)cc1Cl)N1CCCSCC1CN1CCOCC1 (stereo unspecified) | 0.222%
37 | Cc1ccccc1-n1cc(CN(C)C[C@@H]2CCCN3CCCC[C@H]23)cn1 | -12.2%
38 | CC(NS(=O)(=O)CCCC#N)c1cccc(-n2cccn2)c1 (stereo unspecified) | -10.5%

Row | Compound | cytotoxicity at 70.5 h
39 | Cc1cc(NC(=O)C(C)Nc2cccc(COCc3ccco3)c2)on1 (stereo unspecified) | -20.2%
40 | Cc1ccc(NCc2cccc3cn[nH]c23)cc1OC1CCOC1 (stereo unspecified) | -0.654%
41 | CC(=O)Oc1ccnc(C(F)(F)F)c1C(C)=O | -3.5%
42 | CC(CNC(=O)CCc1ccccn1)c1ccsc1 (stereo unspecified) | -16.6%
43 | N#Cc1ccc(NCCCN2C(=O)COc3ccccc32)nc1 | -1.32%
44 | CCc1nn(C)c(CC)c1CNC(=O)Nc1cccc2c1CCN2C | -0.865%
45 | c1cc(CNCCc2cn3ccccc3n2)c2c(c1)OCCCO2 | -6.72%
46 | CCC1=NC(SCC(=O)c2ccc(OC)cc2)c2cc(CC)sc2N1 (stereo unspecified) | 12.2%
47 | Cc1nc(CNC(=O)NC(C)c2ccc3c(c2)OCCCO3)cs1 (stereo unspecified) | -0.884%
48 | CCC(CC)c1cc(C(=O)N2CCCC(n3cncn3)C2)on1 (stereo unspecified) | -1.84%
49 | Cc1cc2n(n1)CC(CNC1CCN(c3ccc(F)cc3)CC1)CN2 (stereo unspecified) | -5.25%
50 | COCc1cccc(CNCc2c(C)nn(C)c2N2CCOCC2)c1 | -12.5%
51 | O=C1O[C@@H]2CN(c3ncccn3)C[C@@H]2N1CCCc1ccc(F)cc1 | -7.46%
52 | CC(C)(C)C(O)CN1CCN(Cc2nccn2CC(F)(F)F)CC1 (stereo unspecified) | 17.5%
53 | CN(C)C(=O)CN1CCCC2(CCN(c3ccsc3)C2=O)C1 (stereo unspecified) | 23.7%
54 | COc1cc(NCc2c(C)noc2C)c(C(=O)N(C)C)cc1OC | -8.14%
55 | COCCN1CC[C@]2(CN(Cc3ccccn3)C[C@H]2C)C1=O | 1.87%
56 | CCc1nccn1C1CCCN(C(=O)c2ccc(N(C)C)nn2)C1 (stereo unspecified) | -7.7%
